In patent US20140273093A1, “METHODS OF PRODUCING ANTIBODIES IN YEAST” (BRISTOL-MYERS SQUIBB COMPANY, priority 2013, published 2014):

Test system: P. pastoris
Test: P. pastoris fed-batch fermentation Run 01MAY11: effects of hydroxyurea on cell growth and anti-IL-6 antibody productivity
Assay type: cell-based, Pichia pastoris
Settings: for Sup Titer / WCW / WB Titer: Lots T5, T6 & T10; for Sup Titer / WB Titer: hydroxyurea 2.6-2.8 g/L; for WCW: hydroxyurea 2.6-2.8 g/L added 5 hours after feed start; for WB Titer: calculated from supernatant titer and WCW
Method: The glucose and ethanol were measured by YSI 2700 (YSI Incorporated, Yellow Springs, Ohio), O2 and CO2 of the exhaust line were measured by Questor GP Process Mass Spectrometer (ABB Extrel, Pittsburg, Pa.) and the RQ value was calculated using below Equation [1]. The wet cell weight (WCW) was measured by centrifuging 1 milliliter (mL) fermentation broth at 13,200 rpm for 10 minutes, weighing pellet, and calculated ratio of pellets weight (g) over volume (mL). The supernatant titer (g/L) was measured by the HPLC method and the whole broth (WB) titer was then calculated by below Equation [2].
WB_Titer=Supernatant_Titer*(1−WCW/1000)
The treatment cultures were operated the same way plus adding hydroxyurea 5 hours after feed start.

**Q.** How did the “average whole broth titer” value (90 hours run time, three hydroxyurea treatment lots, control 59.8) turn out when NC(=O)NO [Hydroxyurea] was run?
**A.** Its value is 75 normalized units.

**Q.** And the “Sup Titer” value (Age 59 h)?
**A.** Its value is 83.9 ± 2.2 Normalized.

**Q.** What about the WCW (Age 59 h) of the same compound?
**A.** Its WCW is 437 ± 17 g/kg.

**Q.** What about the “WB Titer” value (Age 59 h) of the same compound?
**A.** The value was 47.2 ± 1.8 Normalized.

**Q.** What about the “Sup Titer” value (Age 90 h) of the same compound?
**A.** The value was 123.3 ± 5.8 Normalized.

**Q.** And the WCW (Age 90 h)?
**A.** Its WCW is 392 ± 20 g/kg.

**Q.** And the “WB Titer” value (Age 90 h)?
**A.** Its value is 75.0 ± 2.7 Normalized.

**Q.** What about the “WCW reached/maintained by hydroxyurea treatment lots” value (after peak cell density at 30-40 hours, control lots ~400 g/Kg) of the same compound?
**A.** Its value is ~450 g/kg.
